Measured values: ChEMBL document CHEMBL1201862, “PubChem BioAssay data set” (2004)
Activity calls are given as the source filed them.

How the values were obtained:
[1] = biological target: Beta-2 adrenergic receptor (Homo sapiens, UniProt P07550); assay: ADRB2 activation measured by internalization – cell-based, FAP fluorogen, flow cytometry, cherry pick 1, dose response (AID 588763); format: functional
Genome polyprotein = Genome polyprotein (dengue virus type 2, UniProt P29990); assay: flavivirus cap methylation enzyme inhibition – biochemical, confirmation dose response, primary screen (AID 588689); format: functional
Chain of Genome polyprotein (P29990 2492-3391 limits assumed): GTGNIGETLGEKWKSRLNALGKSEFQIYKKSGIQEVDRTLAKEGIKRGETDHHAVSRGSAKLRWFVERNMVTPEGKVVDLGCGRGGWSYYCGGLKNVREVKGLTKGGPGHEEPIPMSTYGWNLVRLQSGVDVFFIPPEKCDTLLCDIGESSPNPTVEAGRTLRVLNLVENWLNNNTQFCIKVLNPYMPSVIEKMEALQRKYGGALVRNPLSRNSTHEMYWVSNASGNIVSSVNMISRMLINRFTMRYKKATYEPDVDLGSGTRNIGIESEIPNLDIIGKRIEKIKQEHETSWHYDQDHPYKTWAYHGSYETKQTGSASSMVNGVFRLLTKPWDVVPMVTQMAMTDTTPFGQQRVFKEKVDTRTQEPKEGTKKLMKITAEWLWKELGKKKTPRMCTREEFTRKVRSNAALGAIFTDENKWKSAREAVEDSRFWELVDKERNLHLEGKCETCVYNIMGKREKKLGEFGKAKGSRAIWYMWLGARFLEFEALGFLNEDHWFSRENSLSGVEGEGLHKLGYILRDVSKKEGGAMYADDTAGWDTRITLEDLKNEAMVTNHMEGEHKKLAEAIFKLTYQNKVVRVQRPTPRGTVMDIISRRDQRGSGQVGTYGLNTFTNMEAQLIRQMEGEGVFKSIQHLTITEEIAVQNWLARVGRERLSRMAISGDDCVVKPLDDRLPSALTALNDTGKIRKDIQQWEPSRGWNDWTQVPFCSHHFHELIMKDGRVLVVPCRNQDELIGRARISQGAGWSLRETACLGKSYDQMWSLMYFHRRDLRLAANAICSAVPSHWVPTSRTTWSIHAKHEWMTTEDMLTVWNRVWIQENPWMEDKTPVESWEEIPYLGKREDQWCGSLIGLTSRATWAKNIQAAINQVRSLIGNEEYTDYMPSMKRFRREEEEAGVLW

Coagulation factor XII = biological target: T1, Coagulation factor XII (Homo sapiens, UniProt P00748); format: functional;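 further: activated factor XIIa alpha cleaving a fluorogenic AMC peptide substrate; inhibitor potency from loss of enzyme activity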
T1 sequence (P00748 whole entry): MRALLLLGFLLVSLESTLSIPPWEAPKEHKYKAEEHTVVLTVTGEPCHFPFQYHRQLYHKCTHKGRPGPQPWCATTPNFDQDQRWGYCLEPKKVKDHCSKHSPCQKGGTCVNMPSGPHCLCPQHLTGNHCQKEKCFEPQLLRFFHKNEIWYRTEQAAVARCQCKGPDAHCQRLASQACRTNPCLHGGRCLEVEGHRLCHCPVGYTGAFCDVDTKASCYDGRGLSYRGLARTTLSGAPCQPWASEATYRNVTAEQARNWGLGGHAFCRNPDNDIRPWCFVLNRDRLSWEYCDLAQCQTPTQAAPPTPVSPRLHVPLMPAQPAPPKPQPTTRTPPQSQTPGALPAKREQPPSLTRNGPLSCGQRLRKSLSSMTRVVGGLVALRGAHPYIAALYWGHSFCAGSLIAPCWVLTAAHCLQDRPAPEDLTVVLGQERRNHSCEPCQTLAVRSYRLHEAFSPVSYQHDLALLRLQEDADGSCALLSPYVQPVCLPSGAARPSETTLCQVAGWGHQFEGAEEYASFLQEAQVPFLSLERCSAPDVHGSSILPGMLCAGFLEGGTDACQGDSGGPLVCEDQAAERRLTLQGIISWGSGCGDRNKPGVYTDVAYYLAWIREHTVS

Cytochrome P450 2C19 = Cytochrome P450 2C19 (Homo sapiens, UniProt P33261); assay: Cytochrome panel assay with activity outcomes. Panel member name: p450-cyp2c19 Compounds with AC50 equal or less than 10 uM are considered active; format: functional; conditions: read-out: AC50
Chain of Cytochrome P450 2C19 (P33261 whole entry): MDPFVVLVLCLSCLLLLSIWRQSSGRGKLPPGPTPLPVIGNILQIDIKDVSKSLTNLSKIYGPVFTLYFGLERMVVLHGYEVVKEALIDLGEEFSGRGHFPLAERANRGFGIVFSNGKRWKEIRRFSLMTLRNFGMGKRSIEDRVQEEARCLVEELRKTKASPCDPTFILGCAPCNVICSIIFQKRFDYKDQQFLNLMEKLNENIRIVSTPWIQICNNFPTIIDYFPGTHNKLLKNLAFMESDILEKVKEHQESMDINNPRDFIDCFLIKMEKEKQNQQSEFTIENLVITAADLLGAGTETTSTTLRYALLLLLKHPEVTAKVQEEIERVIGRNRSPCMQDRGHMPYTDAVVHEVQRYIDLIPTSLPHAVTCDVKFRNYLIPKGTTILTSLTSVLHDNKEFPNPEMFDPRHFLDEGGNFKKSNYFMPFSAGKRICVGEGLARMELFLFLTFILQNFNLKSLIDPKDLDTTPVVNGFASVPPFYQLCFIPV

Cytochrome P450 1A2 = biological target: T2, Cytochrome P450 1A2 (Homo sapiens, UniProt P05177);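 further: PubChem cytochrome P450 panel assay, CYP1A2 panel member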
T2 sequence (P05177 whole entry): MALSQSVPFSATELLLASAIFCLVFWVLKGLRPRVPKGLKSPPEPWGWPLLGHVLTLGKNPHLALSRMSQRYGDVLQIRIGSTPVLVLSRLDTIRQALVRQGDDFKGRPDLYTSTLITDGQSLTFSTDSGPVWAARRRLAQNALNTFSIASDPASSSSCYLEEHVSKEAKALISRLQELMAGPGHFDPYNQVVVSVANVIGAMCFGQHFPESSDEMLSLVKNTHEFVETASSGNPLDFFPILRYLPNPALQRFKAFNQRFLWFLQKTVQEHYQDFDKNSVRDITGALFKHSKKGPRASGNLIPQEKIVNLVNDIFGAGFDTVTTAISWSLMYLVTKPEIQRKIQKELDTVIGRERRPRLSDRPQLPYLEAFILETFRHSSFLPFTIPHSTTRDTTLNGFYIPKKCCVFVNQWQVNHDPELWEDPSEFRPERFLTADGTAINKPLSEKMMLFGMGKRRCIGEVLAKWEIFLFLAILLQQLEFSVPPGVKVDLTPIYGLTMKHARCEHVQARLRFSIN

[2] = biological target: T3, Calpain-2 catalytic subunit (Sus scrofa, UniProt P43367); assay: m-calpain protease blockers, concentration series – biochemical, fluorogenic peptide substrate, dose response (AID 1420); format: functional
T3 sequence (P43367 whole entry): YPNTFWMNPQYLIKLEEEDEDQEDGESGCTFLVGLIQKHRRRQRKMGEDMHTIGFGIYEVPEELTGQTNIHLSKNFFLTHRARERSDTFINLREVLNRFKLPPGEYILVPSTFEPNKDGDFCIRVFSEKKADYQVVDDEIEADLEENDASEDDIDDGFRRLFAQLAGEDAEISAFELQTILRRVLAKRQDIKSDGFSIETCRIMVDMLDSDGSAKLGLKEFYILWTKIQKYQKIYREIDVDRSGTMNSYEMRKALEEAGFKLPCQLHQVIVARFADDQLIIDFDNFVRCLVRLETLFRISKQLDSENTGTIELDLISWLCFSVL

INS1 = assay: INS-1E survival protection against cytokine death – cell-based, luminescence, retest, dose response (AID 449756); format: functional; conditions: Rattus norvegicus;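 further: cell death triggered by IL-1 beta plus TNF-alpha plus IFN-gamma mixture; protective hits raise ATP signal compared with cytokine alone wells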
BJ [3] = assay: BJ-TERT fibroblast viability loss – cell-based, RAS-independent, luminescence, dose response (AID 1933); format: functional; conditions: Homo sapiens
BJ [4] = assay: cells; format: functional, cell-based; conditions: Homo sapiens
BJ [5] = assay: BJ-TERT-LT-ST fibroblast viability loss – cell-based, RAS-independent, luminescence, dose response (AID 1935); format: functional; conditions: Homo sapiens;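 further: BJ fibroblasts immortalized with TERT plus LT and ST oncogenes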
[6] = DRD fibroblast viability loss – cell-based, non-viral oncogenic, luminescence, dose response (AID 1934); format: functional; conditions: Homo sapiens
Vero [7] = assay: cells; format: functional, cell-based; conditions: Chlorocebus sabaeus
Vero [8] = assay: cells; format: functional; conditions: Chlorocebus sabaeus
[9] = NIH-3T3 fibroblast cytotoxicity, dose response, cytotoxicity control, cell-based, fluorescence, Alamar Blue, secondary assay (AID 2327); format: functional;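 further: NIH-3T3 mouse fibroblasts cultured with fluconazole at 8 µg/mL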
[10] = fluconazole-exposed Candida albicans growth modulators – fluorescence, retest, confirmation (AID 2467); format: functional, cell-based
[11] = biological target: T4, High affinity choline transporter 1 (Homo sapiens, UniProt Q9GZV3); assay: human choline transporter blockers, potency – cell-based, 5-point CRC, membrane potential dye, dose response (AID 504840); format: functional
T4 sequence (Q9GZV3 whole entry): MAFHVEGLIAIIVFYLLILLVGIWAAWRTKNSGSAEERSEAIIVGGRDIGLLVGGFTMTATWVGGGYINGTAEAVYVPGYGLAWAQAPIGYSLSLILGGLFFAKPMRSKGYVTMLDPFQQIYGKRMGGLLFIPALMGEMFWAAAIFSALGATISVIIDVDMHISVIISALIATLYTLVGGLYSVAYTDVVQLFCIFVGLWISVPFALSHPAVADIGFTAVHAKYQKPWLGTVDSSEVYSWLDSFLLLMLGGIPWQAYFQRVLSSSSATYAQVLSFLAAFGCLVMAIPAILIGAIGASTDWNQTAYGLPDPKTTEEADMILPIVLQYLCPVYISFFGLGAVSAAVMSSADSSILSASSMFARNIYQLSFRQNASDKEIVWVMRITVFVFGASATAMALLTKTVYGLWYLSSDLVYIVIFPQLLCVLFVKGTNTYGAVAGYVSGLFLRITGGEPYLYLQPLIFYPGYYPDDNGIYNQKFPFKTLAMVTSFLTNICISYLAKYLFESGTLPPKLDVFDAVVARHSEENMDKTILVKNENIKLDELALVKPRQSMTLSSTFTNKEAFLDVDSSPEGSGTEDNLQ

[12] = viability of uninfected HEp-2 cells – cell-based, HTS, cytotoxicity control for RSV inhibitor project, dose response (AID 2410); format: functional; conditions: human respiratory syncytial virus
[13] = luciferase reporter signal suppression in cells – H4 neuroglioma cells, luminescence, dose response (AID 1990); format: functional, cell-based
[14] = Luminescence Cell-Based Dose Response HTS to Identify Inhibitors of 5'UTR Stem-Loop Driven Prion Protein mRNA Translation in H4 Neuroglioblastoma Cells. [Related pubchem assays: 1827 (Project Summary), 1813 (Primary HTS)]; format: functional
[15] = alpha-synuclein stem-loop luciferase translation blockers – H4 neuroglioma cells, luminescence, confirmation (AID 1988); format: functional, cell-based
[16] = biological target: T5, Carboxy-terminal domain RNA polymerase II polypeptide A small phosphatase 1 (Homo sapiens, UniProt Q9GZU7); assay: CTDSP1 inhibitors, concentration-response, biochemical, absorbance readout, ultra-high-throughput screen actives (AID 540297); format: functional
T5 sequence (Q9GZU7 whole entry): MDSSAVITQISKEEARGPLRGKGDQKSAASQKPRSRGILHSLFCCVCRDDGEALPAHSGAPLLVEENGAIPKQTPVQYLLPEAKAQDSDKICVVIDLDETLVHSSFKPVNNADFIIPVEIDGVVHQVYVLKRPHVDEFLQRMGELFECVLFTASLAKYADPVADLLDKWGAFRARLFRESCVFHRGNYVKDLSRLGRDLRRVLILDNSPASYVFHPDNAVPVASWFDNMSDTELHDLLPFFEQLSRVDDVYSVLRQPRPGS

Chain of Beta-2 adrenergic receptor (P07550 whole entry): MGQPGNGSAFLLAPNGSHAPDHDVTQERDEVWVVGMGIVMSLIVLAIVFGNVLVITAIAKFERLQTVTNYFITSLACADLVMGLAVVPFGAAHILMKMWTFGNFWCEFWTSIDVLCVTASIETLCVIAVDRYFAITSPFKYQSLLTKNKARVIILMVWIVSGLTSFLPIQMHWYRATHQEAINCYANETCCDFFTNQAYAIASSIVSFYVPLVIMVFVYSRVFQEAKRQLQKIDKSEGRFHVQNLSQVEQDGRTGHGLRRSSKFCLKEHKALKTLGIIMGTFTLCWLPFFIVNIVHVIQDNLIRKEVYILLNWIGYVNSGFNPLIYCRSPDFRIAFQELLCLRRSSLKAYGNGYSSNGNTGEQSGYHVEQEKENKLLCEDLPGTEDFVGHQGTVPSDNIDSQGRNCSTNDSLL

## O=C1CC(c2ccccc2)(c2ccccc2)c2ccccc21
[1]
  EC50: 17.1 µM (inactive)

## CCOc1ccc2nc(NC(=O)CSc3nc4cccnc4n3C)sc2c1
[1]
  EC50: 2.44 µM (active)

## COc1ccccc1N(O)C1CC(=O)N(c2ccc(F)cc2)C1=O (stereo not given)
Genome polyprotein
  IC50: 62 µM (active)

## Cc1cc(OC(=O)c2ccc(Cl)cc2Cl)nc(C)n1
Coagulation factor XII
  IC50: > 50 µM (inconclusive)
Cytochrome P450 2C19
  AC50: 28.2 µM (inconclusive)
Cytochrome P450 1A2
  AC50: 28.2 µM (inconclusive)

## C=CCNC(=S)N/N=C/c1ccc(C)c([N+](=O)[O-])c1
[2]
  IC50: 3.49 µM (not active)
Coagulation factor XII
  IC50: > 50 µM (inactive)

## O=C(C(c1ccccc1)c1ccccc1)N1CCN(c2ccccn2)CC1
[1]
  EC50: 0.0379 µM (active)

## c1ccc(-c2csc3ncnc(NCC4COc5ccccc5O4)c23)cc1 (stereo not given)
Coagulation factor XII
  IC50: > 50 µM (inactive)
INS1
  AC50: 1.41 µM (active)

## N#CC1=C(N)OC2=C(CCc3ccccc32)C1c1ccccc1 (stereo not given)
BJ [3]
  EC50: 0.645 µM (inconclusive)
BJ [4]
  EC50: 13.5 µM (active)
BJ [5]
  EC50: 0.689 µM (inconclusive)
[6]
  EC50: 0.61 µM (active)
Vero [7]
  IC50: > 25 µM (active)
Vero [8]
  CC50: 0.17 µM (active)
[1]
  EC50: 52.5 µM (inactive)

## CCOC(=O)c1nc(NNC(=O)c2ccc([N+](=O)[O-])cc2)sc1C
[9]
  EC50: 30.9 µM (active)
[10]
  EC50: 2.62 µM (active)
[11]
  IC50: 9.91 µM (active)
INS1
  AC50: 2.7 µM (active)

## CCOc1ccccc1CNC(=O)c1cc2oc3ccccc3c2n1CC
[12]
  CC50: 13.8 µM (active)
[13]
  EC50: > 120 µM (not active)
[14]
  EC50: 16.6 µM (active)
[15]
  EC50: 14.9 µM (active)
Vero [7]
  IC50: > 12.5 µM (active)
Vero [8]
  CC50: > 25 µM (active)
cells
  IC50: 42.3 µM (active)

## O=C(O)c1ccc(Oc2ccc(S(=O)(=O)c3ccc(C(=O)O)c(C(=O)O)c3)cc2)cc1
[16]
  IC50: 6.97 µM (active)
